According to ChEMBL document CHEMBL3044741, “Synthesis of novel biologically active methylene derivatives of sydnones” (Med Chem Res, 2013):
In brackets after ≈: the same amount, converted by molar mass.

What was measured:
Pseudomonas aeruginosa [1] = assay: Antibacterial activity against Pseudomonas aeruginosa MTCC 424 after 24 hrs by broth dilution method; format: functional; settings: MTCC 424, 24 h
Streptococcus pyogenes [2] = assay: Antibacterial activity against Streptococcus pyogenes MTCC 442 after 24 hrs by broth dilution method; format: functional; settings: MTCC 442, 24 h
Escherichia coli [3] = assay: Antibacterial activity against Escherichia coli MTCC 443 after 24 hrs by broth dilution method; format: functional; settings: MTCC 443, 24 h
Staphylococcus aureus [4] = assay: Antibacterial activity against Staphylococcus aureus MTCC 96 after 24 hrs by broth dilution method; format: functional; settings: MTCC 96, 24 h
Pseudomonas aeruginosa [5] = assay: Antibacterial activity against Pseudomonas aeruginosa MTCC 424 at 250 ug/ml after 24 hrs by Kirby-Bauer method; format: functional; settings: MTCC 424, 24 h, read-out: IZ
Escherichia coli [6] = assay: Antibacterial activity against Escherichia coli MTCC 443 at 250 ug/ml after 24 hrs by Kirby-Bauer method; format: functional; settings: MTCC 443, 24 h, read-out: IZ
Streptococcus pyogenes [7] = assay: Antibacterial activity against Streptococcus pyogenes MTCC 442 at 250 ug/ml after 24 hrs by Kirby-Bauer method; format: functional; settings: MTCC 442, 24 h, read-out: IZ
Staphylococcus aureus [8] = assay: Antibacterial activity against Staphylococcus aureus MTCC 96 at 250 ug/ml after 24 hrs by Kirby-Bauer method; format: functional; settings: MTCC 96, 24 h, read-out: IZ
[9] = Selectivity index, ratio of CC50 for human MT4 cells to IC50 for HIV2 ROD; format: functional
[10] = Cytotoxicity against human MT4 cells by MTT assay; format: cell-based
[11] = Selectivity index, ratio of CC50 for human MT4 cells to IC50 for HIV1 3B; format: functional
[12] = system: Human immunodeficiency virus 2; assay: Antiviral activity against HIV2 ROD infected in MT4 cells assessed as inhibition of virus-induced cytopathogenicity by MTT assay; format: functional, organism-based; settings: Human immunodeficiency virus 2, ISOLATE ROD
Human alphaherpesvirus 3 [13] = assay: Antiviral activity against thymidine kinase-deficient Varicella-zoster virus infected in HEL cells assessed as reduction in plaque formation; format: functional, organism-based; settings: Human alphaherpesvirus 3, HEL
[14] = system: Human immunodeficiency virus 1; assay: Antiviral activity against HIV1 3B infected in MT4 cells assessed as inhibition of virus-induced cytopathogenicity by MTT assay; format: functional, organism-based; settings: Human immunodeficiency virus 1, 3B
Human alphaherpesvirus 3 [15] = assay: Antiviral activity against Varicella-zoster virus Oka expressing thymidine kinase infected in HEL cells assessed as reduction in plaque formation; format: functional, organism-based; settings: Human alphaherpesvirus 3, strain Oka vaccine
[16] = Cytotoxicity against human HEL cells; format: cell-based
Cytomegalovirus [17] = assay: Antiviral activity against Cytomegalovirus Davis in HEL cells assessed as reduction in plaque formation; format: functional, organism-based; settings: Human betaherpesvirus 5, Davis
[18] = Cytotoxicity against human HEL cells assessed as alteration in cell morphology; format: cell-based
Cytomegalovirus [19] = assay: Antiviral activity against Cytomegalovirus AD-169 infected in HEL cells assessed as reduction in plaque formation; format: functional, organism-based; settings: Human betaherpesvirus 5, AD-169, HEL
Aspergillus niger [20] = assay: Antifungal activity against Aspergillus niger MTCC 282; format: functional
Aspergillus clavatus [21] = assay: Antifungal activity against Aspergillus clavatus MTCC 1323; format: functional
Candida albicans [22] = assay: Antifungal activity against Candida albicans MTCC 227; format: functional
Aspergillus niger [23] = assay: Antifungal activity against Aspergillus niger MTCC 282 at 250 ug/ml after 74 hrs by Kirby-Bauer method; format: functional; settings: MTCC 282, 74 h, read-out: IZ
Aspergillus clavatus [24] = assay: Antifungal activity against Aspergillus clavatus MTCC 1323 at 250 ug/ml after 74 hrs by Kirby-Bauer method; format: functional; settings: MTCC 1323, 74 h, read-out: IZ
Candida albicans [25] = assay: Antifungal activity against Candida albicans MTCC 227 at 250 ug/ml after 74 hrs by Kirby-Bauer method; format: functional; settings: MTCC 227, 74 h, read-out: IZ

SMILES	MIC (Pseudomonas aeruginosa [1]) [µg/mL]	MIC (Streptococcus pyogenes [2]) [µg/mL]	MIC (Escherichia coli [3]) [µg/mL]	MIC (Staphylococcus aureus [4]) [µg/mL]	zone of inhibition at 250 µg/mL (Pseudomonas aeruginosa [5]) [mm]	zone of inhibition at 250 µg/mL (Escherichia coli [6]) [mm]	zone of inhibition at 250 µg/mL (Streptococcus pyogenes [7]) [mm]	zone of inhibition at 250 µg/mL (Staphylococcus aureus [8]) [mm]	Ratio CC50/IC50 [9]	CC50 [10] [µg/mL]	Ratio CC50/IC50 [11]	IC50 [12] [µg/mL]	EC50 (Human alphaherpesvirus 3 [13]) [µg/mL]	IC50 [14] [µg/mL]	EC50 (Human alphaherpesvirus 3 [15]) [µg/mL]	CC50 [16] [µg/mL]	EC50 (Cytomegalovirus [17]) [µg/mL]	MCC [18] [µg/mL]	EC50 (Cytomegalovirus [19]) [µg/mL]	MIC (Aspergillus niger [20]) [µg/mL]	further results
O=C(N[C@H](CO)[C@H](O)c1ccc([N+](=O)[O-])cc1)C(Cl)Cl [CHLORAMPHENICOL]	50 (≈ 155 µM)	50 (≈ 155 µM)	50 (≈ 155 µM)	50 (≈ 155 µM)	21	23	20	21	–	–	–	–	–	–	–	–	–	–	–	–	–
Cc1ccc(-[n+]2noc([O-])c2CN2CCN(c3cccc(Cl)c3Cl)CC2)cc1	1000 (≈ 2380 µM)	200 (≈ 477 µM)	125 (≈ 298 µM)	500 (≈ 1190 µM)	16	21	19	17	<1	31.7 (≈ 75.6 µM)	<1	> 31.7	> 4	> 31.7	> 4	28.8 (≈ 68.7 µM)	> 4	20	4 (≈ 9.54 µM)	500 (≈ 1190 µM)	MIC (Aspergillus clavatus [21]): 250 µg/mL (≈ 596 µM); MIC (Candida albicans [22]): 250 µg/mL (≈ 596 µM); zone of inhibition at 250 µg/mL (Aspergillus niger [23]): 21 mm; zone of inhibition at 250 µg/mL (Aspergillus clavatus [24]): 23 mm; zone of inhibition at 250 µg/mL (Candida albicans [25]): 18 mm
CC(=O)N1CCN(Cc2c([O-])on[n+]2-c2ccc(C)cc2)CC1	500 (≈ 1580 µM)	100 (≈ 316 µM)	250 (≈ 790 µM)	500 (≈ 1580 µM)	17	19	21	17	<1	17.3 (≈ 54.6 µM)	<1	> 17.3	> 20	> 17.3	> 20	24.9 (≈ 78.7 µM)	> 20	100	> 20	200 (≈ 632 µM)	MIC (Aspergillus clavatus [21]): 200 µg/mL (≈ 632 µM); MIC (Candida albicans [22]): 200 µg/mL (≈ 632 µM); zone of inhibition at 250 µg/mL (Aspergillus niger [23]): 26 mm; zone of inhibition at 250 µg/mL (Aspergillus clavatus [24]): 24 mm; zone of inhibition at 250 µg/mL (Candida albicans [25]): 22 mm
Cc1ccc(-[n+]2noc([O-])c2CN2CCN(C)C(c3ccccc3)C2)cc1 (stereo unspecified)	100 (≈ 274 µM)	100 (≈ 274 µM)	500 (≈ 1370 µM)	250 (≈ 686 µM)	21	16	21	19	<1	14.4 (≈ 39.5 µM)	<1	> 14.4	> 20	> 14.4	> 20	23.7 (≈ 65 µM)	> 20	100	> 20	1000 (≈ 2740 µM)	MIC (Aspergillus clavatus [21]): 200 µg/mL (≈ 549 µM); MIC (Candida albicans [22]): 200 µg/mL (≈ 549 µM); zone of inhibition at 250 µg/mL (Aspergillus niger [23]): 18 mm; zone of inhibition at 250 µg/mL (Aspergillus clavatus [24]): 21 mm; zone of inhibition at 250 µg/mL (Candida albicans [25]): 18 mm
Cc1ccc(-[n+]2noc([O-])c2CN2CCN(C)CC2)cc1	100 (≈ 347 µM)	100 (≈ 347 µM)	250 (≈ 867 µM)	500 (≈ 1730 µM)	21	18	20	16	<1	12.7 (≈ 44 µM)	<1	> 12.7	> 20	> 12.9	> 20	25.6 (≈ 88.8 µM)	> 20	100	> 20	500 (≈ 1730 µM)	MIC (Aspergillus clavatus [21]): 500 µg/mL (≈ 1730 µM); MIC (Candida albicans [22]): 500 µg/mL (≈ 1730 µM); zone of inhibition at 250 µg/mL (Aspergillus niger [23]): 21 mm; zone of inhibition at 250 µg/mL (Aspergillus clavatus [24]): 21 mm; zone of inhibition at 250 µg/mL (Candida albicans [25]): 18 mm
Cc1ccnc2c1NC(=O)c1cccnc1N2C1CC1 [NEVIRAPINE]	–	–	–	–	–	–	–	–	<1	> 4	>80	> 4	–	0.05 (≈ 0.188 µM)	–	–	–	–	–	–	–
O=C(O)c1cn(C2CC2)c2cc(N3CCNCC3)c(F)cc2c1=O [CIPROFLOXACIN]	–	50 (≈ 151 µM)	25 (≈ 75.4 µM)	50 (≈ 151 µM)	27	28	22	22	–	–	–	–	–	–	–	–	–	–	–	–	–
Cc1ccc(-[n+]2cc([O-])on2)cc1	–	–	–	–	–	–	–	–	–	–	–	–	> 20	–	> 20	33.1 (≈ 188 µM)	> 20	100	> 20	–	–
O=c1[nH]cnc2c1ncn2[C@H]1CC[C@@H](CO)O1 [DIDANOSINE]	–	–	–	–	–	–	–	–	>13	> 50	>24	3.78 (≈ 16 µM)	–	2.09 (≈ 8.85 µM)	–	–	–	–	–	–	–
